Assay results as given in PMC7558535, “In Vitro Metabolism of DWP16001, a Novel Sodium-Glucose Cotransporter 2 Inhibitor, in Human and Animal Hepatocytes” (Pharmaceutics, 2020).

How the values were obtained:
Type in all cases: in vitro ADME
[1] = system: human hepatocytes; assay: Metabolic stability in human hepatocytes
Description: (§1) To evaluate the metabolic stability of DWP16001 in human, dog, monkey, mouse, and rat hepatocytes, pooled cryopreserved hepatocytes were carefully thawed in recovery medium and resuspended in incubation medium (Krebs–Henseleit buffer for mouse, rat, and human; William’s E media for dog and monkey) to 0.5 × 10^6 cells/mL for mouse, 0.67 × 10^6 cells/mL for rat, and 1.0 × 10^6 cells/mL for dog, monkey, and human in accordance with the manufacturer’s protocols. Then, 60-μL aliquots of these hepatocyte suspensions and an equal volume of 2 μM DWP16001 in incubation medium were mixed in 96-well plates and incubated in triplicate for 0, 30, 60, 90, 120, 180, or 240 min in a CO2 incubator at 37 °C. Reactions were stopped by addition of 120 µL of ice-cold acetonitrile to each well and the cell suspension was sonicated for 5 min at 4 °C, followed by centrifugation at 15,000× g for 10 min at 4 °C after 5 min of sonication. 80-µL aliquots of the supernatants were then vortex-mixed with 20 μL of ice-cold ketoconazole (an internal standard) in acetonitrile and analyzed by LC–tandem mass spectrometry (LC-MS/MS). The peak area ratios of DWP16001 versus internal standard at each sampling point were used for the subsequent calculation. Elimination parameters, including half-life (t1/2), intrinsic clearance (Clint), and hepatic clearance (Clhep) of DWP16001 in mouse, rat, dog, monkey, and human were calculated by the following equations [19]. (1) t1/2min=ln2/−k elimination slope (2) ClintmL/min/kg=ln2/t1/2×mL incubation/hepatocytes 10^6 cells×B×10^6 cells/g liver×A g liver/kg BW (3) ClhepmL/min/kg=Qh×Clint/Qh+Clint (4) Hepatic extraction ratio = Clhep/Qh
(§2) Here, A has values of 87.5, 40, 32, 32, and 25.7; B has values of 135, 117, 215, 120, and 139; Qh (representing hepatic blood flow) has values of 90, 55.2, 30.9, 43.4, and 20.7 mL/min/kg, for mouse, rat, dog, monkey, and human, respectively. Hepatic extraction ratio values of ≤ 0.25, 0.25–0.75, and ≥ 0.75 were regarded as low, moderate, and high, respectively.

[2] = Metabolic stability in human hepatocytes; conditions: pooled cryopreserved hepatocytes
Description: as §1, §2

[3] = Metabolic stability in mouse hepatocytes; conditions: pooled cryopreserved hepatocytes, mouse hepatocytes
Description: as §1, §2

[4] = system: mouse hepatocytes; assay: Metabolic stability in mouse hepatocytes
Description: as §1, §2

[5] = biological target: T1, CYP3A4 (Homo sapiens, UniProt P08684); assay: Enzyme kinetics of metabolite formation in cDNA-expressed CYP3A4 supersomes
T1 construct: purchased Corning Life Sciences
T1 sequence (P08684 whole entry): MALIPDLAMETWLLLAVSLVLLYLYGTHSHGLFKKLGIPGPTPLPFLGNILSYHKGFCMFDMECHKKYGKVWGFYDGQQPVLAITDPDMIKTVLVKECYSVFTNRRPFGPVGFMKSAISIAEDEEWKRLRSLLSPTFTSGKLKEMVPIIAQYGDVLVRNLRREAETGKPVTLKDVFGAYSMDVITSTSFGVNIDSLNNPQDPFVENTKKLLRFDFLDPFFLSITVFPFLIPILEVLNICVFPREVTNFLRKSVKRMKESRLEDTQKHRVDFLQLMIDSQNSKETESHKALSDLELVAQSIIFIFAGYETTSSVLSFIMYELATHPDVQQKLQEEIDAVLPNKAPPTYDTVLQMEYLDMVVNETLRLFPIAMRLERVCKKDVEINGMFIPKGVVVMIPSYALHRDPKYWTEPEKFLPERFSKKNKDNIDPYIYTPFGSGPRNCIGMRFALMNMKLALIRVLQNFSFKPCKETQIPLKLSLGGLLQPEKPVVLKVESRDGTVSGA
Description: To calculate the enzyme kinetic parameters for the M1 and M2 formation from DWP16001, DWP16001 (final concentrations, 1–200 μM) was incubated with NADPH-generating system, pooled human liver microsomes (0.25 mg/mL), or human cDNA-expressed CYP3A4 or CYP2C19 supersomes (10 pmol) at 37 °C for 30 min in triplicate. Reactions were stopped by addition of 400 μL of ice-cold ketoconazole (200 ng/mL) in acetonitrile. Following vortex-mixing and centrifugation (15,000× g, 8 min, 4 °C), 75 μL aliquots of the supernatant were diluted with 75 µL of 30% acetonitrile; 5 μL aliquots were injected into an LC−MS/MS system.
Apparent kinetic parameters (Km, Vmax and n) for the formation of M1, M2, and M3 from DWP16001 by human liver microsomes, CYP3A4, or CYP2C19 were calculated as follows: the unweighted formation rates of M1, M2, and M3 over a range of DWP16001 concentrations were fitted to the Hill equation model [V = Vmax × S^n/(Km^n + S^n)] or the single enzyme model [V = Vmax × S/(Km + S)] using Enzyme Kinetics software (version 1.1 SPSS Inc., Chicago, IL, USA). In the above equations, V means the reaction velocity of the formation of M1, M2, and M3 at given concentration [S] of DWP16001, Vmax means the maximum reaction velocity, n means the Hill constant, and Km means the DWP16001 concentration at which the reaction velocity is 50% of Vmax.

[6] = biological target: T1, CYP3A4; assay: Immunoinhibition of DWP16001 metabolism by anti-CYP3A4 antibody in human liver microsomes; conditions: 5 μM DWP16001, pooled human liver microsomes
Description: DWP16001 (5 μM) in human liver microsomes was incubated with varying concentrations of antibody specific for human CYP3A4 (anti-CYP3A4 antibody). Prior to incubation, human liver microsomes were pretreated with anti-CYP3A4 antibody for 15 min on ice. Reactions were initiated by addition of an aliquot of NADPH-generating system; mixtures were incubated for 60 min at 37 °C. Reactions were terminated by addition of 100 µL of ice-cold ketoconazole (200 ng/mL) in acetonitrile; following centrifugation at 15,000× g for 10 min at 4 °C. Aliquots of supernatant (150 µL) was evaporated using a vacuum concentrator and re-dissolved in 100 µL of 20% methanol; 5 µL aliquots were injected into an LC-MS/MS system.

With `OC[C@H]1O[C@@H](c2cc(Cc3ccc(C4CC4)cc3)c(Cl)c3c2CCO3)[C@H](O)[C@@H](O)[C@@H]1O` [DWP16001, (2S,3R,4R,5S,6R)-2-(7-chloro-6-(4-cyclopropylbenzyl)-2,3-dihydrobenzofuran-4-yl)-6-(hydroxymethyl)tetrahydro-2H-pyran-3,4,5-triol] the Hepatic extraction ratio [1] was 0.22, the “Hepatic extraction ratio class” value [1] was “low (Hepatic extraction ratio values of ≤ 0.25)” and the Clhep ([1]; well-stirred model) was 4.5 mL/min/kg. It also gave a CLint scaled at 1 μM [2] of 5.7 mL/min/kg, a half-life at 1 μM ([2]; 37 °C, 0-240 min) of 14.4 h and a CLint scaled at 1 μM [3] of 61.4 mL/min/kg. For the same compound, the half-life at 1 μM ([3]; 37 °C, 0-240 min) was 8.88 h, the “Hepatic extraction ratio class” value ([4]; mouse) was “moderate (0.25–0.75)” and the Hepatic extraction ratio ([4]; mouse hepatocytes) was 0.41. For the same compound, the Clhep ([4]; mouse hepatocytes, well-stirred model) was 36.5 mL/min/kg, the “M3 formation kinetic model” value [5] was “single enzyme kinetics” and the “M1 Formation Mode” value ([5]; kinetic model fitted) was “Hill”. The “M2 Formation Mode” value ([5]; kinetic model fitted) was “Hill” and the “Formation of M1 and M2 from DWP16001 with increasing anti-CYP3A4 antibody” value [6] was “decreased”.
